Molecular target: P. falciparum apicoplast DNA polymerase (Pf-apPOL) (Plasmodium falciparum, UniProt Q8ILY1)
Test: Fluorescence-based high-throughput DNA polymerase assay (molecular beacon), primary screen and dose-response
Assay type: biochemical
Settings: for DNA Pol: 90 min, 10 µM; for % inhibition apPOL 180' 2.5 / % inhibition apPOL 180' 5 / % inhibition apPOL 180' 10 / % inhibition apPOL 180' 20 / % inhibition apPOL 180' 40 / % inhibition apPOL 180' 80: read at 180'
Outline: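 Single-point screening used 10 µM compound with 20 nM polymerase, 20 nM hairpin substrate and 6 µM dNTPs for 90 min at 25 °C. Confirmatory titrations (2.5–80 µM) followed fluorescence at three times, and IC50 was derived from a fit including a cooperativity term n.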

[1] = "DNA Pol" of the 186 hits list (screen value)

Chain of P. falciparum apicoplast DNA polymerase (Pf-apPOL) (Q8ILY1 entry or part of it): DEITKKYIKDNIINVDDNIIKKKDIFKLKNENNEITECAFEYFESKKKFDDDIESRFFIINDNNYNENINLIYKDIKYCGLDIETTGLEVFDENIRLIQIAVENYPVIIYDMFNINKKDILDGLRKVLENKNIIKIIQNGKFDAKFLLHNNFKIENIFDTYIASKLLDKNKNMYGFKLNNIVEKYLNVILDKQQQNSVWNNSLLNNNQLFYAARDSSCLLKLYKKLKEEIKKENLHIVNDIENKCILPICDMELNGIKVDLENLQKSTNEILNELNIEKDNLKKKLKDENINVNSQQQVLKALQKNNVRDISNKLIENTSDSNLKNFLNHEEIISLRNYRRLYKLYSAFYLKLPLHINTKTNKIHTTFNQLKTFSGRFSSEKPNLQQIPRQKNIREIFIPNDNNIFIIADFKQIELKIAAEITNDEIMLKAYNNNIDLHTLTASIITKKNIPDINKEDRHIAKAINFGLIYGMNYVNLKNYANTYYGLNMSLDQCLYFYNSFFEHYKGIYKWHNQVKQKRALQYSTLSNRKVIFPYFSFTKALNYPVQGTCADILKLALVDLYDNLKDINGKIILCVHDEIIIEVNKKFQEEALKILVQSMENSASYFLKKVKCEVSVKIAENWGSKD

## Cc1cc2[nH]c(C(=O)Nc3ccc(F)cc3)c(CN3CCOCC3)c2s1 [Molecule 60, Fc1ccc(cc1)NC(=O)c1[nH]c2c(c1CN1CCOCC1)sc(c2)C]
186 hits, DNA Pol (screen value), unit not given
  DNA Pol: 24
'DNA Pol' (screen value), unit not given
  DNA Pol: 24
DRC-1, read at 10', concentration 2.5
  % inhibition Apo pol 10' 2.5: -2.4883%
DRC-1, read at 10', concentration 5
  % inhibition Apo pol 10' 5: 6.203%
DRC-1, read at 10', concentration 10
  % inhibition Apo pol 10' 10: 25.0572%
DRC-1, read at 10', concentration 20
  % inhibition Apo pol 10' 20: 44.6815%
DRC-1, read at 10', concentration 40
  % inhibition Apo pol 10' 40: 69.9494%
DRC-1, read at 10', concentration 80
  % inhibition Apo pol 10' 80: 76.8011%
DRC-1, read at 90', concentration 2.5
  % inhibition Apol 90' 2.5: -5.041%
DRC-1, read at 90', concentration 5
  % inhibition Apol 90' 5: 0.952%
DRC-1, read at 90', concentration 10
  % inhibition Apol 90' 10: 13.5518%
DRC-1, read at 90', concentration 20
  % inhibition Apol 90' 20: 29.567%
DRC-1, read at 90', concentration 40
  % inhibition Apol 90' 40: 56.5635%
DRC-1, read at 90', concentration 80
  % inhibition Apol 90' 80: 73.0205%
DRC-1, concentration 2.5
  % inhibition apPOL 180' 2.5: -7.929%
DRC-1, concentration 5
  % inhibition apPOL 180' 5: -4.0377%
DRC-1, concentration 10
  % inhibition apPOL 180' 10: 4.226%
DRC-1, concentration 20
  % inhibition apPOL 180' 20: 14.1958%
DRC-1, concentration 40
  % inhibition apPOL 180' 40: 39.4222%
DRC-1, concentration 80
  % inhibition apPOL 180' 80: 63.0707%
DRC-2, concentration 40
  % inhibition Apo pol 5': 38%
  % inhibition apPOL 180' 40: 53%
DRC-2, concentration 20
  % inhibition ApPOL 90': 38%
  % inhibition apPOL 180' 20: 28%
DRC-2, read at 5', concentration 2.5
  % inhibition Apo pol 5' 2.5: -2.34%
DRC-2, read at 5', concentration 5
  % inhibition Apo pol 5' 5: 3.5%
DRC-2, read at 5', concentration 10
  % inhibition Apo pol 5' 10: 20%
DRC-2, read at 5', concentration 20
  % inhibition Apo pol 5' 20: 33%
DRC-2, read at 5', concentration 40
  % inhibition Apo pol 5' 40: 38%
DRC-2, read at 5', concentration 80
  % inhibition Apo pol 5' 80: 36%
DRC-2, read at 40', concentration 2.5
  % inhibition Apol 40' 2.5: 0.384%
DRC-2, read at 40', concentration 5
  % inhibition Apol 40' 5: 3.72%
DRC-2, read at 40', concentration 10
  % inhibition Apol 40' 10: 21%
DRC-2, read at 40', concentration 20
  % inhibition Apol 40' 20: 40%
DRC-2, read at 40', concentration 40
  % inhibition Apol 40' 40: 57%
DRC-2, read at 40', concentration 80
  % inhibition Apol 40' 80: 60%
DRC-2, read at 90', concentration 2.5
  % inhibition ApPOL 90' 2.5: 0.312%
DRC-2, read at 90', concentration 5
  % inhibition ApPOL 90' 5: 2.6%
DRC-2, read at 90', concentration 10
  % inhibition ApPOL 90' 10: 18%
DRC-2, read at 90', concentration 20
  % inhibition ApPOL 90' 20: 38%
DRC-2, read at 90', concentration 40
  % inhibition ApPOL 90' 40: 59%
DRC-2, read at 90', concentration 80
  % inhibition ApPOL 90' 80: 65%
DRC-2, concentration 2.5
  % inhibition apPOL 180' 2.5: -2.7%
DRC-2, concentration 5
  % inhibition apPOL 180' 5: -0.247%
DRC-2, concentration 10
  % inhibition apPOL 180' 10: 11%
DRC-2, concentration 80
  % inhibition apPOL 180' 80: 66%

## O=C(CSc1nnc(-c2ccco2)[nH]1)c1ccc(Cl)cc1 [KU0029065]
[1]
  DNA Pol: 40
DRC-1, concentration 2.5
  % inhibition Apo pol 10': 25.2453%
  % inhibition Apol 90': 14.2802%
  % inhibition apPOL 180': 10.7111%
DRC-1, concentration 5
  % inhibition Apo pol 10': 33.7865%
  % inhibition Apol 90': 16.5602%
  % inhibition apPOL 180': 8.15%
DRC-1, concentration 10
  % inhibition Apo pol 10': 71.7651%
  % inhibition Apol 90': 48.3315%
  % inhibition apPOL 180': 30.1123%
DRC-1, concentration 20
  % inhibition Apo pol 10': 81.7468%
  % inhibition Apol 90': 65.2838%
  % inhibition apPOL 180': 47.4786%
DRC-1, concentration 40
  % inhibition Apo pol 10': 82.8592%
  % inhibition Apol 90': 75.799%
  % inhibition apPOL 180': 65.3498%
DRC-1, concentration 80
  % inhibition Apo pol 10': 73.082%
  % inhibition Apol 90': 79.1006%
  % inhibition apPOL 180': 74.7958%
DRC-2, concentration 2.5
  % inhibition Apo pol 5': -0.174%
  % inhibition Apol 40': 0.888%
  % inhibition ApPOL 90': 1.21%
  % inhibition apPOL 180': 0.33%
DRC-2, concentration 5
  % inhibition Apo pol 5': -0.717%
  % inhibition Apol 40': 0.406%
  % inhibition ApPOL 90': -0.831%
  % inhibition apPOL 180': -8%
DRC-2, concentration 10
  % inhibition Apo pol 5': 6%
  % inhibition Apol 40': 7%
  % inhibition ApPOL 90': 6%
  % inhibition apPOL 180': -2.67%
DRC-2, concentration 20
  % inhibition Apo pol 5': 26%
  % inhibition Apol 40': 17%
  % inhibition ApPOL 90': 23%
  % inhibition apPOL 180': 15%
DRC-2, concentration 40
  % inhibition Apo pol 5': -5.63%
  % inhibition Apol 40': 0.537%
  % inhibition ApPOL 90': -0.138%
  % inhibition apPOL 180': -5%
DRC-2, concentration 80
  % inhibition Apo pol 5': -27%
  % inhibition Apol 40': -50%
  % inhibition ApPOL 90': -49%
  % inhibition apPOL 180': -45%
Primary screen value, DNA Pol
  DNA Pol: 40

## Cc1ccc2c(C(=O)NCCc3cccnc3)cc(NC(=O)C(C)C)cc2n1 [KU0206096]
[1]
  DNA Pol: 22
DRC-1, concentration 2.5
  % inhibition Apo pol 10': 2.289%
  % inhibition Apol 90': -0.2653%
  % inhibition apPOL 180': -4.525%
DRC-1, concentration 5
  % inhibition Apo pol 10': 10.1779%
  % inhibition Apol 90': 3.264%
  % inhibition apPOL 180': -3.235%
DRC-1, concentration 10
  % inhibition Apo pol 10': 28.6368%
  % inhibition Apol 90': 15.2748%
  % inhibition apPOL 180': 5.405%
DRC-1, concentration 20
  % inhibition Apo pol 10': 37.57%
  % inhibition Apol 90': 20.9182%
  % inhibition apPOL 180': 7.166%
DRC-1, concentration 40
  % inhibition Apo pol 10': 75.2311%
  % inhibition Apol 90': 58.3993%
  % inhibition apPOL 180': 41.4073%
DRC-1, concentration 80
  % inhibition Apo pol 10': 89.4827%
  % inhibition Apol 90': 83.2702%
  % inhibition apPOL 180': 75.1879%
DRC-2, concentration 2.5
  % inhibition Apo pol 5': -0.312%
  % inhibition Apol 40': 1.82%
  % inhibition ApPOL 90': 1.09%
  % inhibition apPOL 180': -1.29%
DRC-2, concentration 5
  % inhibition Apo pol 5': 5.56%
  % inhibition Apol 40': 5.58%
  % inhibition ApPOL 90': 5.45%
  % inhibition apPOL 180': 2.66%
DRC-2, concentration 10
  % inhibition Apo pol 5': 24%
  % inhibition Apol 40': 24%
  % inhibition ApPOL 90': 21%
  % inhibition apPOL 180': 13%
DRC-2, concentration 20
  % inhibition Apo pol 5': 40%
  % inhibition Apol 40': 42%
  % inhibition ApPOL 90': 39%
  % inhibition apPOL 180': 28%
DRC-2, concentration 40
  % inhibition Apo pol 5': 49%
  % inhibition Apol 40': 62%
  % inhibition ApPOL 90': 63%
  % inhibition apPOL 180': 57%
DRC-2, concentration 80
  % inhibition Apo pol 5': 49%
  % inhibition Apol 40': 70%
  % inhibition ApPOL 90': 75%
  % inhibition apPOL 180': 78%
Primary screen value, DNA Pol
  DNA Pol: 22

## COc1ccc(-c2n[nH]cc2Oc2ccc(Cl)cc2)c(O)c1 [KU0029837]
[1]
  DNA Pol: 54
DRC-1, concentration 2.5
  % inhibition Apo pol 10': 13.0965%
  % inhibition Apol 90': 6.836%
  % inhibition apPOL 180': 2.031%
DRC-1, concentration 5
  % inhibition Apo pol 10': 22.8396%
  % inhibition Apol 90': 14.8627%
  % inhibition apPOL 180': 3.615%
DRC-1, concentration 10
  % inhibition Apo pol 10': 52.0762%
  % inhibition Apol 90': 39.7229%
  % inhibition apPOL 180': 25.5956%
DRC-1, concentration 20
  % inhibition Apo pol 10': 64.1383%
  % inhibition Apol 90': 52.6198%
  % inhibition apPOL 180': 36.8517%
DRC-1, concentration 40
  % inhibition Apo pol 10': 82.54%
  % inhibition Apol 90': 73.85%
  % inhibition apPOL 180': 62.2191%
DRC-1, concentration 80
  % inhibition Apo pol 10': 88.9574%
  % inhibition Apol 90': 85.1708%
  % inhibition apPOL 180': 78.7822%
DRC-2, concentration 2.5
  % inhibition Apo pol 5': 15%
  % inhibition Apol 40': 15%
  % inhibition ApPOL 90': 13%
  % inhibition apPOL 180': 2.39%
DRC-2, concentration 5
  % inhibition Apo pol 5': 23%
  % inhibition Apol 40': 27%
  % inhibition ApPOL 90': 24%
  % inhibition apPOL 180': 13%
DRC-2, concentration 10
  % inhibition Apo pol 5': 39%
  % inhibition Apol 40': 46%
  % inhibition ApPOL 90': 44%
  % inhibition apPOL 180': 32%
DRC-2, concentration 20
  % inhibition Apo pol 5': 43%
  % inhibition Apol 40': 55%
  % inhibition ApPOL 90': 53%
  % inhibition apPOL 180': 43%
DRC-2, concentration 40
  % inhibition Apo pol 5': 51%
  % inhibition Apol 40': 69%
  % inhibition ApPOL 90': 71%
  % inhibition apPOL 180': 66%
DRC-2, concentration 80
  % inhibition Apo pol 5': 51%
  % inhibition Apol 40': 72%
  % inhibition ApPOL 90': 74%
  % inhibition apPOL 180': 74%
Primary screen value, DNA Pol
  DNA Pol: 54
